In assay [1] the target is T1, Human FXIa (Homo sapiens, UniProt P03951).
T1 construct: purchased Enzyme Research Laboratories
The assay can be described thus: Determination of FXIa inhibitory activity in vitro (fluorogenic substrate Z-Gly-Pro-Arg-AFC). The format is biochemical. Conditions: Selectivity, Human FXIa (Enzyme Research Laboratories), 25° C.

Assay [2] deals with T2, Human Factor XIIa (Homo sapiens, UniProt P00748).
T2 construct: purchased Enzyme Research Laboratories
T2 sequence (P00748 373-615 limits assumed): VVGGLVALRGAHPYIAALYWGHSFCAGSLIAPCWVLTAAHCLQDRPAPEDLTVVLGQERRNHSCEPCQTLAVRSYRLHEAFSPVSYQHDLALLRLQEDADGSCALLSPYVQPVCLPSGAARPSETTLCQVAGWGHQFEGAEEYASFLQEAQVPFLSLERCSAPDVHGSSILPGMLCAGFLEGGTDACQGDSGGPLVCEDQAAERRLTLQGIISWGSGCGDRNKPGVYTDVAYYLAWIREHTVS
T2 sequence (P00748 20-372 partner limits assumed): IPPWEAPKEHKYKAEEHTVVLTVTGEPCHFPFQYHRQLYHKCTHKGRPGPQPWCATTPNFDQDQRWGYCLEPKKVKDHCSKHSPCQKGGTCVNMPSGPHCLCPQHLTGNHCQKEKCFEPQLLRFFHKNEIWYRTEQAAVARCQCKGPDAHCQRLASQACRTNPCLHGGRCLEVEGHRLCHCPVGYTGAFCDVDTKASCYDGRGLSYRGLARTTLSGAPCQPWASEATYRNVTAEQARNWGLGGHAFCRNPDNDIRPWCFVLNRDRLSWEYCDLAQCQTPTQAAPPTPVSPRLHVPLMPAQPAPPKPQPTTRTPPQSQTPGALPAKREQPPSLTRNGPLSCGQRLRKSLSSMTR
Description: Determination of Factor XIIa inhibitory activity in vitro (fluorogenic substrate H-DPro-Phe-Arg-AFC). Type of assay: biochemical. To be noted: Human Factor XIIa (Enzyme Research Laboratories), 25° C., read-out: Human FXIIa IC50. In short, it runs like this:
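In vitro inhibition of human Factor XIIa (sourced from Enzyme Research Laboratories) was measured by incubating the enzyme at 25° C. with the fluorogenic substrate H-DPro-Phe-Arg-AFC across a range of test compound concentrations. The initial reaction rate, taken as residual enzyme activity, was followed by the […], and IC50 values were calculated.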

As a reminder, the IC50 is the concentration that inhibits the measured activity by half.

T1 sequence (P03951 388-625 limits assumed): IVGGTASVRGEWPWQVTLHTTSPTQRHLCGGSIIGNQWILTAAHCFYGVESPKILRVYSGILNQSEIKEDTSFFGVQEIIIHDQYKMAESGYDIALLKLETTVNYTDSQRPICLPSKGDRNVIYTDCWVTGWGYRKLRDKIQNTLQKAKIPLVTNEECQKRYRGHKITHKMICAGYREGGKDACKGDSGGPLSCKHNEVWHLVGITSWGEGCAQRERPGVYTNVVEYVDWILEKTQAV
T1 sequence (P03951 19-387 partner limits assumed): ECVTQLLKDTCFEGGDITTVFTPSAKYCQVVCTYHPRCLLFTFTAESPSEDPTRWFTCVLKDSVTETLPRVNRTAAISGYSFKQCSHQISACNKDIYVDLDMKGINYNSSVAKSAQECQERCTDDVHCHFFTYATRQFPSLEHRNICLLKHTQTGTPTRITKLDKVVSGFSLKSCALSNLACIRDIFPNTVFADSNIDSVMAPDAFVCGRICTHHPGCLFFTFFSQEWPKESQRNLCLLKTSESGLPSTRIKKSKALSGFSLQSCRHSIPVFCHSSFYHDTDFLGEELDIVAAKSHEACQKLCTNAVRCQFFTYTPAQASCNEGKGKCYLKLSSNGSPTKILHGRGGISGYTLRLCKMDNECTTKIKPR

Turning to `Cc1ccnc(NCC2CCN(C)CC2)c1C(=O)NCc1ccc2c(N)nccc2c1` [Example 4.14], the 50% inhibitory concentration (IC50) in assay [1] was more than 40 µM; in assay [2], 10 to 40 µM.
Regarding `CN1CCC(CNc2nc(-c3ccccc3)ccc2C(=O)NCc2ccc3c(N)nccc3c2)CC1` [Example 4.15], the values for the IC50 in assay [1] and in assay [2] were more than 40 µM and 1 to 3 µM, respectively.
For `CN1CCC(CNc2nc(-c3cccnc3)ccc2C(=O)NCc2ccc3c(N)nccc3c2)CC1` [Example 4.16], in that order: more than 40 µM and 0.3 to 1 µM.
Turning to `CN1CCC(CNc2nc(C3CC3)ccc2C(=O)NCc2ccc3c(N)nccc3c2)CC1` [Example 4.17], the IC50 in assay [1] was more than 40 µM; in assay [2], 1 to 3 µM.
For `CN1CCC(CNc2ncc(-c3ccccc3)nc2C(=O)NCc2ccc3c(N)nccc3c2)CC1` [Example 4.18], in that order: 23.3 µM and 0.3 to 1 µM.
For the molecule `CN1CCC(CNc2nc(Cl)c(Cl)cc2C(=O)NCc2ccc3c(N)nccc3c2)CC1` [Example 4.19], the results for the IC50 in assay [1] and in assay [2] were more than 40 µM and less than 0.3 µM, respectively.
As for `CN1CCC(CNc2ncc(-c3cnn(C)c3)nc2C(=O)NCc2ccc3c(N)nccc3c2)CC1` [Example 4.20], the IC50 in assay [1] is 12.7 µM; in assay [2], 0.3 to 1 µM.
On to `Cc1cc(C(=O)NCc2ccc3c(N)nccc3c2)c(NCC2CCN(C)CC2)nc1C` [Example 4.21], for which the IC50 in assay [1] is more than 40 µM; in assay [2], 0.3 to 1 µM.
Consider `Nc1nccc2cc(CNC(=O)c3nccnc3Nc3ccc(N4CCNCC4)cc3)ccc12` [Example 4.22], for which the IC50 is more than 40 µM in assay [1] and 10 to 40 µM in assay [2].
The corresponding values for `CN1CCc2c(cccc2Nc2nccnc2C(=O)NCc2ccc3c(N)nccc3c2)C1` [Example 4.23] are more than 40 µM and 0.3 to 1 µM.
The corresponding values for `CN1CCc2cc(Nc3nccnc3C(=O)NCc3ccc4c(N)nccc4c3)ccc2C1` [Example 4.24] are more than 40 µM and 0.3 to 1 µM.
Consider `Nc1nccc2cc(CNC(=O)c3nccnc3NCC3CCN(CCO)CC3)ccc12` [Example 4.25], for which the IC50 is more than 40 µM in assay [1] and 0.3 to 1 µM in assay [2].
Turning to `Nc1nccc2cc(CNC(=O)c3cnc(N4CCN(c5ccncc5)CC4)c(Cl)c3)ccc12` [Example 8.08], the IC50 is more than 40 µM in assay [1] and 10 to 40 µM in assay [2].
With `CN(CC1CCN(c2ccncc2)CC1)c1ncc(C(=O)NCc2ccc3c(N)nccc3c2)cc1Cl` [Example 8.09, N-[(1-amino-6-isoquinolyl)methyl]-5-chloro-6-[methyl-[[1-(4-pyridyl)-4-piperidyl]methyl]amino]pyridine-3-carboxamide], the figures for the IC50 in assay [1] and in assay [2] were more than 40 µM and 1 to 3 µM, respectively.
For `N#Cc1cccc(CNc2ncc(C(=O)NCc3ccc4c(N)nccc4c3)cc2Cl)c1` [Example 11.28], in that order: more than 40 µM and 10 to 40 µM.
For `COCCNc1ncc(C(=O)NCc2ccc3c(N)nccc3c2)cc1Cl` [Example 11.29], in that order: more than 40 µM and 10 to 40 µM.
For `CN(C)CCNc1ncc(C(=O)NCc2ccc3c(N)nccc3c2)cc1Cl` [Example 11.30], in that order: more than 40 µM and 10 to 40 µM.
Take `Nc1nccc2cc(CNC(=O)c3cnc(NCCn4cncn4)c(Cl)c3)ccc12` [Example 11.31]: the results for the IC50 in assay [1] and in assay [2] were more than 40 µM and 10 to 40 µM, respectively.
As for `CN1C(C)(C)CC(Nc2ncc(C(=O)NCc3ccc4c(N)nccc4c3)cc2Cl)CC1(C)C` [Example 11.32], the IC50 in assay [1] is more than 40 µM; in assay [2], 10 to 40 µM.
Turning to `CN1CCC(Nc2ncc(C(=O)NCc3ccc4c(N)nccc4c3)cc2Cl)CC1` [Example 11.33], the IC50 in assay [1] was more than 40 µM; in assay [2], 10 to 40 µM.
Take `Nc1nccc2cc(CNC(=O)c3cnc(NC4CCNCC4)c(Cl)c3)ccc12` [Example 11.34]: the IC50 is more than 40 µM in assay [1] and 10 to 40 µM in assay [2].
For `CN1CCC(Nc2ncc(C(=O)NCc3ccc4c(N)nccc4c3)cc2Cl)CC1=O` (stereo not shown) [Example 11.35], the results for the IC50 in assay [1] and in assay [2] were more than 40 µM and 10 to 40 µM, respectively.
For `CC(C)N1CCC(Nc2ncc(C(=O)NCc3ccc4c(N)nccc4c3)cc2Cl)CC1` [Example 11.36], the half-maximal inhibitory concentration (IC50) is more than 40 µM in assay [1] and 3 to 10 µM in assay [2].
With `CC(C)CN1CCC(Nc2ncc(C(=O)NCc3ccc4c(N)nccc4c3)cc2Cl)CC1` [Example 11.37], the half-maximal inhibitory concentration (IC50) in assay [1] is more than 40 µM; in assay [2], 10 to 40 µM.
The corresponding values for `CS(=O)(=O)N1CCC(Nc2ncc(C(=O)NCc3ccc4c(N)nccc4c3)cc2Cl)CC1` [Example 11.38] are more than 40 µM and 10 to 40 µM.
The corresponding values for `CC(=O)N1CCC(Nc2ncc(C(=O)NCc3ccc4c(N)nccc4c3)cc2Cl)CC1` [Example 11.39] are more than 40 µM and 10 to 40 µM.
For `Nc1nccc2cc(CNC(=O)c3cnc(NC4CCN(c5nccs5)CC4)c(Cl)c3)ccc12` [Example 11.40], the results for the IC50 in assay [1] and in assay [2] were more than 40 µM and 10 to 40 µM, respectively.
In the case of `COCCN1CCC(Nc2ncc(C(=O)NCc3ccc4c(N)nccc4c3)cc2Cl)CC1` [Example 11.41], the IC50 was more than 40 µM in assay [1] and 10 to 40 µM in assay [2].
In the case of `Nc1nccc2cc(CNC(=O)c3cnc(NC4CCN(C5CC5)CC4)c(Cl)c3)ccc12` [Example 11.42], the values for the IC50 in assay [1] and in assay [2] were more than 40 µM and 10 to 40 µM, respectively.
Consider `Nc1nccc2cc(CNC(=O)c3cnc(OCCN4CCCCC4)c(Cl)c3)ccc12` [Example 13.26, N-((1-aminoisoquinolin-6-yl)methyl)-5-chloro-6-(2-(piperidin-1-yl)ethoxy)nicotinamide], for which the IC50 in assay [1] was more than 40 µM; in assay [2], 3 to 10 µM.
For the molecule `Nc1nccc2cc(CNC(=O)c3cnc(OCCCN4CCCCC4)c(Cl)c3)ccc12` [Example 13.27], the IC50 is more than 40 µM in assay [1] and 3 to 10 µM in assay [2].
For `Nc1nccc2cc(CNC(=O)c3cc(Cl)cnc3N3CCN(c4ncccn4)CC3)ccc12` [Example 16.04], in that order: more than 40 µM and 10 to 40 µM.
The corresponding values for `CC(=O)NCCN1CCN(c2ncc(Cl)cc2C(=O)NCc2ccc3c(N)nccc3c2)CC1` [Example 16.05] are more than 40 µM and 3 to 10 µM.
Consider `Nc1nccc2cc(CNC(=O)c3ccc(CN4CCN(c5ccncc5)CC4)c(Cl)c3)ccc12` [Example 29.07, N-((1-aminoisoquinolin-6-yl)methyl)-3-chloro-4-((4-(pyridin-4-yl)piperazin-1-yl)methyl)benzamide], for which the IC50 in assay [1] was 21 µM; in assay [2], 10 to 40 µM.
For `Nc1nccc2cc(CNC(=O)c3cnc(CN4CCN(c5ccncc5)CC4)c(Cl)c3)ccc12` [Example 29.08, N-[(1-amino-6-isoquinolyl)methyl]-5-chloro-6-[[4-(4-pyridyl)piperazin-1-yl]methyl]pyridine-3-carboxamide], in that order: more than 40 µM and 10 to 40 µM.
The corresponding values for `CN1CCC(CNc2ncc(Cl)cc2C(=O)NCc2c(Cl)cccc2-n2cnnn2)CC1` [Example 33.01, 5-Chloro-N-{[2-chloro-6-(1,2,3,4-tetrazol-1-yl)phenyl]methyl}-2-{[(1-methylpiperidin-4-yl)methyl]amino}pyridine-3-carboxamide] are more than 40 µM and 3 to 10 µM.
For `CN1CCC(CNc2nccnc2C(=O)Nc2ccc3c(c2)C(=O)NC3)CC1` [Example 33.02], in that order: 20 µM and 10 to 40 µM.
Take `CN1CCC(CNc2nccnc2C(=O)Nc2ccc3nc[nH]c(=O)c3c2)CC1` [Example 33.03]: the half-inhibitory concentration (IC50) in assay [1] was 20 µM; in assay [2], 10 to 40 µM.
The corresponding values for `CN1CCC(CNc2nccnc2C(=O)Nc2ccc3ccnc(N)c3c2)CC1` [Example 33.04] are more than 40 µM and 10 to 40 µM.
As to `CCOC(=O)c1cn(-c2ccc(OC)c(F)c2CNC(=O)c2nccnc2NCC2CCN(C)CC2)nn1` [Example 33.05], the IC50 in assay [1] is 33.5 µM; in assay [2], 3 to 10 µM.
The corresponding values for `CN1CCC(CNc2nccnc2C(=O)NCCc2cnc[nH]2)CC1` [Example 33.06] are 20 µM and 10 to 40 µM.
On to `CN1CCC(CNc2nccnc2C(=O)Nc2ccc3c(N)nccc3c2)CC1` [Example 33.07], for which the figures for the half-inhibitory concentration (IC50) in assay [1] and in assay [2] were more than 40 µM and 10 to 40 µM, respectively.
Take `CN1CCC(CNc2nccnc2C(=O)Nc2ccc3nccnc3c2)CC1` [Example 33.08]: the figures for the IC50 in assay [1] and in assay [2] were more than 40 µM and 10 to 40 µM, respectively.
For `COc1ccc(-n2cc(C(=O)O)nn2)c(CNC(=O)c2nccnc2NCC2CCN(C)CC2)c1F` [Example 33.09, 1-(3-Fluoro-4-methoxy-2-{[(3-{[(1-methylpiperidin-4-yl)methyl]amino}pyrazin-2-yl)formamido]methyl}phenyl)-1,2,3-triazole-4-carboxylic acid], in that order: 33.5 µM and 10 to 40 µM.

For the origin of these results see patent US20220298141A1, “ENZYME INHIBITORS” (KALVISTA PHARMACEUTICALS LIMITED, priority 2019, published 2022).
